Data taken from article PMC9454848, “BMS-986158, a Small Molecule Inhibitor of the Bromodomain and Extraterminal Domain Proteins, in Patients with Selected Advanced Solid Tumors: Results from a Phase 1/2a Trial” (Cancers, 2022).
Read-outs that look alike come from different tables or passages of the source.

Test: Plasma pharmacokinetics after single dose (C1D1), LC-MS/MS
Format: in vivo, human
Conditions: human, plasma, oral
Procedure: At C1D1 in every dosing schedule cohort, a single dose was administered followed by 168 h (i.e., 7 days) of intensive PK sampling. Following cycle 1, the multiple-dose treatment schedules (described above) began in cycle 2. PK parameters were derived following single dose combined across all schedules and multiple doses at cycle 2 for each schedule. […] PK assessments were evaluated for BMS-986158 and its metabolite using plasma samples at regular intervals. Both the parent and metabolite samples were simultaneously analyzed using a validated liquid chromatography and tandem mass spectrometry assay.
All treated patients who received ≥1 dose of BMS-986158 were evaluated in the safety population. […] All treated patients with available and sufficient serum or plasma samples for the corresponding analytes were included in the PK analyses. […] ECG parameters were evaluated in a categorical analysis, and linear mixed-effects regression modeling was used to describe the quantitative relationship between ΔQTcF and time-matched serum concentrations of BMS-986158 or its metabolite at a single dose.

Vd/F (0.75 mg, cohort Schedule A, 0.75 mg, n = 4, read-out: Vz/F, GM (%CV)): 14.7 L
AUC(0-t) (0.75 mg, cohort Schedule A, 0.75 mg, n = 5, read-out: AUC(0–24), GM (%CV)): 1.03 µg·h/mL
AUC(0-t) (0.75 mg, cohort Schedule A, 0.75 mg, n = 5, read-out: AUC(0–T), GM (%CV)): 2.15 µg·h/mL
Tmax (0.75 mg, cohort Schedule A, 0.75 mg, n = 5, read-out: Tmax, median): 4 h
Cmax (0.75 mg, cohort Schedule A, n = 5): 0.0688 µg/mL
AUC(0-t) (1.25 mg, cohort Schedule A, 1.25 mg, n = 3, read-out: AUC(0–24), GM (%CV)): 2.31 µg·h/mL
AUC(0-t) (1.25 mg, cohort Schedule A, 1.25 mg, n = 3, read-out: AUC(0–T), GM (%CV)): 6.37 µg·h/mL
half-life (1.25 mg, cohort Schedule A, 1.25 mg, n = 3, read-out: Effective T1/2, mean (SD) (converted)): 48.7 h
Tmax (1.25 mg, cohort Schedule A, 1.25 mg, n = 3, read-out: Tmax, median): 1 h
Vd/F (1.25 mg, cohort Schedule A, 1.25 mg, n = 3, read-out: Vz/F, GM (%CV)): 12.5 L
Cmax (1.25 mg, cohort Schedule A, n = 3): 0.175 µg/mL
half-life (2 mg, cohort Schedule A, 2.0 mg, n = 4, read-out: Effective T1/2, mean (SD) (converted)): 41.4 h
Vd/F (2 mg, cohort Schedule A, 2.0 mg, n = 4, read-out: Vz/F, GM (%CV)): 14.6 L
AUC(0-t) (2 mg, cohort Schedule A, 2.0 mg, n = 9, read-out: AUC(0–24), GM (%CV)): 3.61 µg·h/mL
AUC(0-t) (2 mg, cohort Schedule A, 2.0 mg, n = 9, read-out: AUC(0–T), GM (%CV)): 8.56 µg·h/mL
Tmax (2 mg, cohort Schedule A, 2.0 mg, n = 9, read-out: Tmax, median): 2 h
Cmax (2 mg, cohort Schedule A, n = 9): 0.26 µg/mL
AUC(0-t) (2 mg, cohort Schedule B, 2.0 mg, n = 1, read-out: AUC(0–24), GM (%CV)): 2.36 µg·h/mL
AUC(0-t) (2 mg, cohort Schedule B, 2.0 mg, n = 1, read-out: AUC(0–T), GM (%CV)): 5.2 µg·h/mL
half-life (2 mg, cohort Schedule B, 2.0 mg, n = 1, read-out: Effective T1/2, mean (SD) (converted)): 44.2 h
Tmax (2 mg, cohort Schedule B, 2.0 mg, n = 1, read-out: Tmax, median): 1 h
Vd/F (2 mg, cohort Schedule B, 2.0 mg, n = 1, read-out: Vz/F, GM (%CV)): 23.2 L
Cmax (2 mg, cohort Schedule B, n = 1): 0.207 µg/mL
AUC(0-t) (2 mg, cohort Schedule C, 2.0 mg, n = 6, read-out: AUC(0–24), GM (%CV)): 3.66 µg·h/mL
AUC(0-t) (2 mg, cohort Schedule C, 2.0 mg, n = 6, read-out: AUC(0–T), GM (%CV)): 10.9 µg·h/mL
half-life (2 mg, cohort Schedule C, 2.0 mg, n = 6, read-out: Effective T1/2, mean (SD) (converted)): 64.6 h
Tmax (2 mg, cohort Schedule C, 2.0 mg, n = 6, read-out: Tmax, median): 1 h
Vd/F (2 mg, cohort Schedule C, 2.0 mg, n = 6, read-out: Vz/F, GM (%CV)): 13.9 L
Cmax (2 mg, cohort Schedule C, n = 6): 0.295 µg/mL
half-life (3 mg, cohort Schedule A, 3.0 mg, n = 7, read-out: Effective T1/2, mean (SD) (converted)): 33.3 h
Vd/F (3 mg, cohort Schedule A, 3.0 mg, n = 7, read-out: Vz/F, GM (%CV)): 12.8 L
AUC(0-t) (3 mg, cohort Schedule A, 3.0 mg, n = 10, read-out: AUC(0–24), GM (%CV)): 4.94 µg·h/mL
AUC(0-t) (3 mg, cohort Schedule A, 3.0 mg, n = 10, read-out: AUC(0–T), GM (%CV)): 10.5 µg·h/mL
Tmax (3 mg, cohort Schedule A, 3.0 mg, n = 10, read-out: Tmax, median): 2 h
Cmax (3 mg, cohort Schedule A, n = 10): 0.328 µg/mL
half-life (3 mg, cohort Schedule B, 3.0 mg, n = 1, read-out: Effective T1/2, mean (SD) (converted)): 54 h
Vd/F (3 mg, cohort Schedule B, 3.0 mg, n = 1, read-out: Vz/F, GM (%CV)): 15.3 L
AUC(0-t) (3 mg, cohort Schedule B, 3.0 mg, n = 4, read-out: AUC(0–24), GM (%CV)): 6.92 µg·h/mL
AUC(0-t) (3 mg, cohort Schedule B, 3.0 mg, n = 4, read-out: AUC(0–T), GM (%CV)): 28.9 µg·h/mL
Tmax (3 mg, cohort Schedule B, 3.0 mg, n = 4, read-out: Tmax, median): 1.03 h
Cmax (3 mg, cohort Schedule B, n = 4): 0.481 µg/mL
half-life (3 mg, cohort Schedule C, 3.0 mg, n = 10, read-out: Effective T1/2, mean (SD) (converted)): 48.2 h
Vd/F (3 mg, cohort Schedule C, 3.0 mg, n = 10, read-out: Vz/F, GM (%CV)): 15.6 L
AUC(0-t) (3 mg, cohort Schedule C, 3.0 mg, n = 11, read-out: AUC(0–24), GM (%CV)): 4.47 µg·h/mL
AUC(0-t) (3 mg, cohort Schedule C, 3.0 mg, n = 11, read-out: AUC(0–T), GM (%CV)): 11.5 µg·h/mL
Tmax (3 mg, cohort Schedule C, 3.0 mg, n = 11, read-out: Tmax, median): 1 h
Cmax (3 mg, cohort Schedule C, n = 11): 0.37 µg/mL
half-life (4.5 mg, cohort Schedule A, 4.5 mg, n = 9, read-out: Effective T1/2, mean (SD) (converted)): 48.3 h
Vd/F (4.5 mg, cohort Schedule A, 4.5 mg, n = 9, read-out: Vz/F, GM (%CV)): 15.7 L
AUC(0-t) (4.5 mg, cohort Schedule A, 4.5 mg, n = 10, read-out: AUC(0–24), GM (%CV)): 6.79 µg·h/mL
AUC(0-t) (4.5 mg, cohort Schedule A, 4.5 mg, n = 10, read-out: AUC(0–T), GM (%CV)): 19.1 µg·h/mL
Tmax (4.5 mg, cohort Schedule A, 4.5 mg, n = 10, read-out: Tmax, median): 2.04 h
Cmax (4.5 mg, cohort Schedule A, n = 10): 0.478 µg/mL
half-life (4.5 mg, cohort Schedule C, 4.5 mg, n = 5, read-out: Effective T1/2, mean (SD) (converted)): 35.7 h
Vd/F (4.5 mg, cohort Schedule C, 4.5 mg, n = 5, read-out: Vz/F, GM (%CV)): 11.6 L
AUC(0-t) (4.5 mg, cohort Schedule C, 4.5 mg, n = 7, read-out: AUC(0–24), GM (%CV)): 7.42 µg·h/mL
AUC(0-t) (4.5 mg, cohort Schedule C, 4.5 mg, n = 7, read-out: AUC(0–T), GM (%CV)): 17.2 µg·h/mL
Tmax (4.5 mg, cohort Schedule C, 4.5 mg, n = 7, read-out: Tmax, median): 2.02 h
Cmax (4.5 mg, cohort Schedule C, n = 7): 0.567 µg/mL
Tmax (0.75–4.5 mg, read-out: Time to peak plasma concentration (median Tmax)): 1 to 4 h
half-life (read-out: Mean T1/2, range across doses): 34 to 54 h
Compound: Cc1nnn(C)c1-c1cnc2c3ccc(C(C)(C)O)cc3n([C@H](c3ccccc3)C3CCOCC3)c2c1 [BMS-986158]
